From BindingDB's records for doi:10.1021/jm801490z (Nantong University, 2021)

Columns and labels:
[1] = molecular target: T1, Replicase polyprotein 1ab (Severe acute respiratory syndrome coronavirus 2, UniProt P0DTD1); experiment: Inhibition of SARS-CoV-2 Main protease (3264 to 3569 residues) expressed in Escherichia coli BL21-Gold (DE3) using Dabcyl-KTSAVLQSGFRKM-E(Edans)-NH2 as substrate by FRET assay
[2] = molecular target: T1, Replicase polyprotein 1ab; experiment: Inhibition of SARS-CoV-2 3CL protease expressed in Escherichia coli using Dabcyl-KTSAVLQSGFRKM-E(Edans)-NH2 as substrate preincubated for 30 mins followed by substrate addition and measured after 3 hrs

CC(C)(C)OC(=O)Nc1ccn([C@@H](CC2CC2)C(=O)N[C@@H](C[C@@H]2CCNC2=O)C(=O)C(=O)NCc2ccccc2)c(=O)c1
IC50 [1]: 670 nM

Cn1nc(-c2ccc(C(F)(F)F)cc2)nc2c(=O)n(C)c(=O)cc1-2
IC50 [2]: 260 nM
